Data published in ChEMBL document CHEMBL2074485, “Identification of thyroid hormone transporters in humans: different molecules are involved in a tissue-specific manner” (Endocrinology, 2001).

Assays:
[1] = target: T1, Solute carrier organic anion transporter family member 4A1 (Homo sapiens, UniProt Q96BD0); test: TP_TRANSPORTER: inhibition of Taurocholate uptake (Taurochorate: 5 uM, T3: 50 uM) in Xenopus laevis oocytes; type: functional, cell-based; details: oocyte
T1 sequence (Q96BD0 whole entry): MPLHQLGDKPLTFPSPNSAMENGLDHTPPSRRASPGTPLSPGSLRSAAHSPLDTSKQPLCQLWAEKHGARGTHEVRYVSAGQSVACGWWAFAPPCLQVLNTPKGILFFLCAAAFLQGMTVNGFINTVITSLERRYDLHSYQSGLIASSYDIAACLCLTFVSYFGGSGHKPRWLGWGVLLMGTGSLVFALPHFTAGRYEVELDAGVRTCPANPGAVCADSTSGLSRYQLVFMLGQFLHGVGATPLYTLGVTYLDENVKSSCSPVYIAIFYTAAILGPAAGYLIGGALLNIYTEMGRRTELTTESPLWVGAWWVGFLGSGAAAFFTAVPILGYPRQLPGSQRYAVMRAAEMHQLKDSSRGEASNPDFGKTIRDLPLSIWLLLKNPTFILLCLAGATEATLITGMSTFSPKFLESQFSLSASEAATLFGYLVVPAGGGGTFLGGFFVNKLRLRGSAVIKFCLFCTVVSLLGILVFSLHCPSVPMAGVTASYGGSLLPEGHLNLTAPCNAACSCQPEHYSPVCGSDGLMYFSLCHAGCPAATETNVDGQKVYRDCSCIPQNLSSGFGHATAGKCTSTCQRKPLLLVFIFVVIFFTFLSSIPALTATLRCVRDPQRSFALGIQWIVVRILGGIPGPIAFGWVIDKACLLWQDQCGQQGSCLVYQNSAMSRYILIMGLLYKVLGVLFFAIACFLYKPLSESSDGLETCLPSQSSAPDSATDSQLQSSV

[2] = target: T1, Solute carrier organic anion transporter family member 4A1; test: (§1) TP_TRANSPORTER: uptake in Xenopus laevis oocytes; type: functional, cell-based; details: oocyte
[3] = target: T1, Solute carrier organic anion transporter family member 4A1; test: TP_TRANSPORTER: inhibition of Taurocholate uptake (Taurochorate: 5 uM, BSP: 50 uM) in Xenopus laevis oocytes; type: functional, cell-based; details: oocyte
[4] = target: T1, Solute carrier organic anion transporter family member 4A1; test: TP_TRANSPORTER: inhibition of T3 uptake (T3: 1 uM, T4: 100 uM) in Xenopus laevis oocytes; type: functional, cell-based; details: oocyte
[5] = target: T2, Solute carrier organic anion transporter family member 1A2 (OATP1A2, SLCO1A2) (Homo sapiens, UniProt P46721); test: as §1; details: Xenopus laevis oocytes expressing the transporter
T2 sequence (P46721 whole entry): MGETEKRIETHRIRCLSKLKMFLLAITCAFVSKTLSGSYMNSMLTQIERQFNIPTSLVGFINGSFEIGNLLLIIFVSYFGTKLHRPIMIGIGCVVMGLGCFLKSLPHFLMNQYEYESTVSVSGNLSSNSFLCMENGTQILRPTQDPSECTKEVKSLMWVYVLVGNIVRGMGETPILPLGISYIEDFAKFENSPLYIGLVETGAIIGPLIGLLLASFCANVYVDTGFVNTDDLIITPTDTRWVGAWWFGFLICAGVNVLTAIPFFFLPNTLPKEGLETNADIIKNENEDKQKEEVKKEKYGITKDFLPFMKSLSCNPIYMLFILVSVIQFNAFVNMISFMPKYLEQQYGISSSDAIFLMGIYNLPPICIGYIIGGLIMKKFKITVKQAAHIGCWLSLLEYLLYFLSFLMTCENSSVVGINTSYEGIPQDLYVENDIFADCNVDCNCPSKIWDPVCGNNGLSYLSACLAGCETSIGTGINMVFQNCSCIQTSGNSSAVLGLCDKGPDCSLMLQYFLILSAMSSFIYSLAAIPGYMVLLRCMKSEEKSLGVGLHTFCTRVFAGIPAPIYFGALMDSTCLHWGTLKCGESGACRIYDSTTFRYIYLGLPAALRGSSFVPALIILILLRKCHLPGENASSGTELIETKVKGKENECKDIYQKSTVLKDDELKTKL

[6] = substrate: N[C@@H](Cc1cc(I)c(Oc2ccc(O)c(I)c2)c(I)c1)C(=O)O; test: as §1; type: functional, cell-based, Oocyte

N[C@@H](Cc1cc(I)c(Oc2ccc(O)c(I)c2)c(I)c1)C(=O)O [LIOTHYRONINE]
Activity [1]: inhibitor [(at a rough estimate) 30 % of control]

N[C@@H](Cc1ccc(Oc2cc(I)c(O)c(I)c2)c(I)c1)C(=O)O [REVERSE TRIIODOTHYRONINE]
Activity [2]: substrate [+]

O=C1OC(c2ccc(O)c(S(=O)(=O)[O-])c2)(c2ccc(O)c(S(=O)(=O)[O-])c2)c2c(Br)c(Br)c(Br)c(Br)c21.[Na+].[Na+] [SULFOBROMOPHTHALEIN SODIUM]
Activity [3]: inhibitor [(at a rough estimate) 15 % of control]

N[C@@H](Cc1cc(I)c(Oc2cc(I)c(O)c(I)c2)c(I)c1)C(=O)O [LEVOTHYROXINE]
Activity [2]: substrate [+]
Activity [4]: inhibitor [(at a rough estimate) 15 % of control]
Km [5]: 8 µM

B1: Solute carrier organic anion transporter family member 4A1 (Homo sapiens) (protein)
chain: MPLHQLGDKPLTFPSPNSAMENGLDHTPPSRRASPGTPLSPGSLRSAAHSPLDTSKQPLCQLWAEKHGARGTHEVRYVSAGQSVACGWWAFAPPCLQVLNTPKGILFFLCAAAFLQGMTVNGFINTVITSLERRYDLHSYQSGLIASSYDIAACLCLTFVSYFGGSGHKPRWLGWGVLLMGTGSLVFALPHFTAGRYEVELDAGVRTCPANPGAVCADSTSGLSRYQLVFMLGQFLHGVGATPLYTLGVTYLDENVKSSCSPVYIAIFYTAAILGPAAGYLIGGALLNIYTEMGRRTELTTESPLWVGAWWVGFLGSGAAAFFTAVPILGYPRQLPGSQRYAVMRAAEMHQLKDSSRGEASNPDFGKTIRDLPLSIWLLLKNPTFILLCLAGATEATLITGMSTFSPKFLESQFSLSASEAATLFGYLVVPAGGGGTFLGGFFVNKLRLRGSAVIKFCLFCTVVSLLGILVFSLHCPSVPMAGVTASYGGSLLPEGHLNLTAPCNAACSCQPEHYSPVCGSDGLMYFSLCHAGCPAATETNVDGQKVYRDCSCIPQNLSSGFGHATAGKCTSTCQRKPLLLVFIFVVIFFTFLSSIPALTATLRCVRDPQRSFALGIQWIVVRILGGIPGPIAFGWVIDKACLLWQDQCGQQGSCLVYQNSAMSRYILIMGLLYKVLGVLFFAIACFLYKPLSESSDGLETCLPSQSSAPDSATDSQLQSSV
Km [6]: 0.9 µM
